Seven compounds from patent publication EP4578856A1, “HETEROCYCLIC COMPOUND” (Ubience Inc., priority 2022, dated 2024) can be followed below.

The target in one assay is T1, human ALK kinase (Homo sapiens, UniProt Q9UM73).
T1 construct: GST (N); purchased Carna Biosciences, Inc; host or cells: baculovirus expression system
Nature of the assay: ALK kinase inhibitory activity, mobility shift assay (MSA, Carna Biosciences). As to conditions: inhibition rate at 10 nM. The assay is classed as biochemical. As for the experimental part: The ALK kinase inhibitory activity was measured using a mobility shift assay (MSA) provided by Carna Biosciences, Inc.
The test compound was dissolved in DMSO to prepare a 1 µM solution. The solution was further diluted 25 times with an assay buffer (20 mmol/L HEPES, 0.01%Triton (registered trademark) X-100, 1 mmol/L DTT, pH 7.5) to obtain a test compound solution.
The human ALK kinase was expressed by fusing the cytoplasmic domain (1058 to 1620 amino acids of Accession No. BAG 10812.1) with GST at the N-terminus using the baculovirus expression system. The GST-ALK was purified by glutathione sepharose chromatography. A 4-fold concentration substrate (Srctide, 1000 nmol/L)/ATP (50 µmol/L)/metal solution (Mg, 5 mmol/L) was prepared with kit buffer (20 mmol/L HEPES, 0.01% Triton (registered trademark) X-100, 5 mmol/L DTT, pH 7.5). A 2-fold concentration kinase solution was prepared with assay buffer.
In the same manner as described in Test Example 1, tests and evaluation of inhibitory activity and data analysis were performed.

The target of assay [1] is T2, FAK protein (Homo sapiens, UniProt Q05397). Nature of the assay: FAK kinase inhibitory activity, mobility shift assay (MSA, Carna Biosciences). Format: biochemical. The arrangement: GST (N); purchased Carna Biosciences, Inc; host or cells: baculovirus expression system. As to conditions: inhibition rate at 30 nM; reaction time 5 hours. As for the experimental part: The FAK kinase inhibitory activity was measured using a mobility shift assay (MSA) provided by Carna Biosciences, Inc.
The test compound was dissolved in DMSO to prepare a 3 µM solution. The solution was further diluted 25 times with an assay buffer (20 mmol/L HEPES, 0.01%Triton (registered trademark) X-100, 1 mmol/L DTT, pH 7.5) to obtain a test compound solution.
Incomplete human FAK kinase was expressed by fusing 376 to 1052 amino acids of Accession No. NP_722560.1 with GST at the N-terminus using the baculovirus expression system. The GST-FAK was purified by glutathione sepharose chromatography. A 4-fold concentration substrate (Blk/Lyntide, 1000 nmol/L)/ATP (25 µmol/L)/metal solution (Mg, 5 mmol/L) was prepared with kit buffer (20 mmol/L HEPES, 0.01% Triton (registered trademark) X-100, 5 mmol/L DTT, pH 7.5). A 2-fold concentration kinase solution was prepared with assay buffer.
In the same manner as described in Test Example 1, tests and evaluation of inhibitory activity and data analysis were performed. The reaction time was set to 5 hours. […]
Target sequence in this assay (Q05397 376-1052): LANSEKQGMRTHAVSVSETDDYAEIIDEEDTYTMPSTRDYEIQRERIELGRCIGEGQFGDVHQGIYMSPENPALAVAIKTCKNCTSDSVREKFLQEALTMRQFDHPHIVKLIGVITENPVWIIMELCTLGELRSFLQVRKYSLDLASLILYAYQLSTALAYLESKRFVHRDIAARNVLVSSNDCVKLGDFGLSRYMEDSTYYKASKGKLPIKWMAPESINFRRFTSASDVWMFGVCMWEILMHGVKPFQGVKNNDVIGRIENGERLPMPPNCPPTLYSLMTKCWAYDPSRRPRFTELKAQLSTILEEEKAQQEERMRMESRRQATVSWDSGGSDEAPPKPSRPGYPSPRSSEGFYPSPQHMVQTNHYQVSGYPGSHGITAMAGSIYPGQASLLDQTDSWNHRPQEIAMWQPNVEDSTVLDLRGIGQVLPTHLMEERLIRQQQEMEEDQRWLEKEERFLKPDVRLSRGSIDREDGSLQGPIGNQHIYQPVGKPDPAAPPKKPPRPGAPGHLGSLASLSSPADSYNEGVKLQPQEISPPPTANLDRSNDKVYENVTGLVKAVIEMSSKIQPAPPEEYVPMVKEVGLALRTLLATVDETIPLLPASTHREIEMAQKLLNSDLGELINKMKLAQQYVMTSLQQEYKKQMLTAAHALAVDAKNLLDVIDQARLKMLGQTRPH

The target of assay [2] is T2, FAK protein. Nature of the assay: Degradation inducing activity of FAK protein in PA-1 cells, Western blotting (Simple Western JESS). Format: cell-based. Also noted: endogenous in cells; host or cells: PA-1 (ATCC CRL-1572). The note with it: at 10 µM, 24 hours. Here is the method:
In vitro degradation inducing activity of FAK protein of compounds of Examples was evaluated by Western Blotting (WB).
By a test compound, 10 mM DMSO solution was prepared, which was used as a 10 µM test compound solution. Further, the solution was diluted 10-fold with DMSO to prepare a 1 mM solution, which was used as a 1 µM test compound solution.
PA-1 cells (ATCC: CRL-1572, Lot: 70055709) were cultured in Eagle's Minimum Essential Medium supplemented with 10% FBS and 1% Penicillin/Streptomycin. The PA-1 cells seeded in a 24 well plate at 200,000 cells/well/1 mL were cultured for 24 hours, and then 1 µL of DMSO or a test compound solution was added thereto and treatment was performed for 24 hours. Cells were harvested and lysed for 20 minutes on ice using RIPA lysis buffer (Sigma, Cat#R0278) supplemented with protease inhibitor cocktail (Sigma, Cat#P8340; Roche, Cat#P11873580001), and phosphatase inhibitor cocktail (Sigma, Cat#P5726, P0044). The lysate was sonicated (15 seconds, amplitude 30%, 1 cycle) and then centrifuged at 12500 rpm for 15 minutes at 4°C. The protein concentration was determined by BCA assay kit (Thermo Fisher Scientific, Cat#23225).
The western blotting was performed using Simple Western JESS (protein simple). A cell lysis sample (protein amount; about 2 µg) was loaded on a plate of Simple Western JESS, and the expression level of […] was detected using a 12-230 kDa Wes Separation Module (Protein simple, Cat#SM-WO04), an Anti-Rabbit Detection Module for Wes (Protein simple, Cat#DM-001), and a Total Protein Detection Module for Wes (Protein simple, Cat#DM-TP01). As the primary antibody, a material obtained by diluting FAK Rabbit mAb (Cell Signaling Technology, Cat#3285) at 1:100 was used, and as the secondary antibody, a material obtained by diluting HRP-labeled anti-rabbit IgG antibody (Cell Signaling Technology, Cat#7074S) at 1:250 was used. The expression level of the target protein was standardized using the total protein amount loaded as a reference. The standardized expression level data of the control (DMSO) was taken as 100%, and the degradation rate (%) was calculated from the average standardized expression level data of the test compounds (compounds of Examples 109 to 128). All analysis steps, such as data detection and analysis, are fully automated.
Target sequence in this assay (Q05397 whole entry): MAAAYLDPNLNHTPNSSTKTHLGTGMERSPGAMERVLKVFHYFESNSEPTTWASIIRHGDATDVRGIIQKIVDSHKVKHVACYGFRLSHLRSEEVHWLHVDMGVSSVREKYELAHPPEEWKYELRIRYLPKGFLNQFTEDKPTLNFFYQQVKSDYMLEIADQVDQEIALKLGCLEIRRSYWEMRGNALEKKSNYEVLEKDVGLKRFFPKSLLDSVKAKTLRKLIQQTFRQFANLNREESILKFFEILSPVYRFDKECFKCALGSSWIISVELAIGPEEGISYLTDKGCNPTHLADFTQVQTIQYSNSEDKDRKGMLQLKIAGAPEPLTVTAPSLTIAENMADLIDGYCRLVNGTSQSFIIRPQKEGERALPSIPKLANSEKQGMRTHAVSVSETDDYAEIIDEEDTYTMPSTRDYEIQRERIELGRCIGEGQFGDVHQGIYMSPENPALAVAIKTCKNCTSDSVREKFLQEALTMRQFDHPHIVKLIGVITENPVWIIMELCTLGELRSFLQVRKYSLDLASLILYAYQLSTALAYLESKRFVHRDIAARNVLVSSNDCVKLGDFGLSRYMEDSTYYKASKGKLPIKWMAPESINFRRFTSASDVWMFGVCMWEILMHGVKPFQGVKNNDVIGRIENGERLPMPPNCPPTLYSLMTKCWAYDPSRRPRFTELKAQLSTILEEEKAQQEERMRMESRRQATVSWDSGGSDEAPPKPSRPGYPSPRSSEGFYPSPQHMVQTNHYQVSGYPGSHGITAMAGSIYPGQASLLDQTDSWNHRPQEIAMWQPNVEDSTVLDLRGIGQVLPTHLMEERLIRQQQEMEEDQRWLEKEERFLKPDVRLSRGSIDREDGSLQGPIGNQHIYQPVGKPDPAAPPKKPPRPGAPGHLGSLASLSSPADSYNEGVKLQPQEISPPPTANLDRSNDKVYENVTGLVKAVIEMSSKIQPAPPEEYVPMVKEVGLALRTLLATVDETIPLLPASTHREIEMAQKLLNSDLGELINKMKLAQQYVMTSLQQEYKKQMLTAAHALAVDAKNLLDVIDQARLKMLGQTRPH

T1 sequence (Q9UM73 1058-1620): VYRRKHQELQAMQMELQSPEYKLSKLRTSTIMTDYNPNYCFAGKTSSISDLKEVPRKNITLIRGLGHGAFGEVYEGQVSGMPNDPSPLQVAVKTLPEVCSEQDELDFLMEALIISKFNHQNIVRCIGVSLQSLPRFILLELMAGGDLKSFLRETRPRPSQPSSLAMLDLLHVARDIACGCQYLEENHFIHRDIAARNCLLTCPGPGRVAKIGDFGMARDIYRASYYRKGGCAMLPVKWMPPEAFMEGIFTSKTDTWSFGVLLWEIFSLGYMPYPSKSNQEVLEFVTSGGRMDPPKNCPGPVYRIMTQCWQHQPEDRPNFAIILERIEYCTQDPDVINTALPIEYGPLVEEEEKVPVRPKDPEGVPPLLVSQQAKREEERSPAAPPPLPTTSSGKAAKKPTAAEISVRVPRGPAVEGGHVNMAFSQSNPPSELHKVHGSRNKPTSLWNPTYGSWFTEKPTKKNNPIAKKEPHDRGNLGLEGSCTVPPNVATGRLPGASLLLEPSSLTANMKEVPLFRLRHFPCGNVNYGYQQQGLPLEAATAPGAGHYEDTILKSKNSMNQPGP

In the case of `COC[C@H]1CN[C@H](C)CN1CC(=O)N1CC(C)(C)c2ncc(Cc3cccc(OCCOCCOCCOCCOCCOCCNC(=O)CN4CCC(c5cc(OC(C)C)c(Nc6ncc(Cl)c(Nc7ccccc7S(=O)(=O)C(C)C)n6)cc5C)CC4)c3)cc21` [Example 107, 2-(4-(4-((5-Chloro-4-((2-(isopropylsulfonyl)phenyl)amino)pyrimidin-2-yl)amino)-5-isopropoxy-2-methylphenyl)piperidin-1-yl)-N-(17-(3-((1-(2-((2R,5R)-2-(methoxymethyl)-5-methylpiperazin-1-yl)acetyl)-3,3-dimethyl-2,3-dihydro-1H-pyrrolo[3,2-b]pyridin-6-yl)methyl)phenoxy)-3,6,9,12,15-pentaoxaheptadecyl)acetamide], the inhibition at 0.01 µM at human ALK kinase was ≥ 75%. For the compound `C[C@@H]1CN(CC(=O)N2CC(C)(C)c3ncc(Cc4ccc(F)cc4)cc32)[C@@H](CN(C)CCOCC(=O)Nc2ccc(Nc3ncc(C(F)(F)F)c(NCc4cccc(S(C)(=O)=O)c4)n3)cc2)CN1` [Example 109, 2-(2-((((2R,5R)-1-(2-(6-(4-Fluorobenzyl)-3,3-dimethyl-2,3-dihydro-1H-pyrrolo[3,2-b]pyridin-1-yl)-2-oxoethyl)-5-methylpiperazin-2-yl)methyl)(methyl)amino)ethoxy)-N-(4-((4-((3-(methylsulfonyl)benzyl)amino)-5-(trifluoromethyl)pyrimidin-2-yl)amino)phenyl) acetamide], the inhibition at 0.03 µM at FAK protein [1] is ≥ 75%. Take `C[C@@H]1CN(CC(=O)N2CC(C)(C)c3ncc(Cc4ccc(F)cc4)cc32)[C@@H](CN(C)CCOCCOCCOCC(=O)Nc2ccc(Nc3ncc(C(F)(F)F)c(NCc4cccc(S(C)(=O)=O)c4)n3)cc2)CN1` [Example 111, 1-((2R,5R)-1-(2-(6-(4-Fluorobenzyl)-3,3-dimethyl-2,3-dihydro-1H-pyrrolo[3,2-b]pyridin-1-yl)-2-oxoethyl)-5-methylpiperazin-2-yl)-2-methyl-N-(4-((4-((3-(methylsulfonyl)benzyl)amino)-5-(trifluoromethyl)pyrimidin-2-yl)amino)phenyl)-5,8,11-trioxa-2-azatridecan-13-amide]: the “FAK protein degradation rate” value on FAK protein [2] was ≥ 75%. Besides, the inhibition at 0.03 µM at FAK protein [1] is ≥ 75%. With `COC[C@H]1CN[C@H](C)CN1CC(=O)N1CC(C)(C)c2nc(CN3CCN(CCOCC(=O)Nc4ccc(Nc5ncc(C(F)(F)F)c(NCc6cccc(S(C)(=O)=O)c6)n5)cc4)CC3)c(Cc3ccc(F)cc3)cc21` [Example 115, 2-(2-(4-((6-(4-Fluorobenzyl)-1-(2-((2R,5R)-2-(methoxymethyl)-5-methylpiperazin-1-yl)acetyl)-3,3-dimethyl-2,3-dihydro-1H-pyrrolo[3,2-b]pyridin-5-yl)methyl)piperazin-1-yl)ethoxy)-N-(4-((4-((3-(methylsulfonyl)benzyl)amino)-5-(trifluoromethyl)pyrimidin-2-yl)amino)phenyl)acetamide], the “FAK protein degradation rate” value on FAK protein [2] is ≥ 75%. On FAK protein [1], the inhibition at 0.03 µM was ≥ 75%.

In the case of `COC[C@H]1CN[C@H](C)CN1CC(=O)N1CC(C)(C)c2nc(CN3CCN(CCOCCOCC(=O)Nc4ccc(Nc5ncc(C(F)(F)F)c(NCc6cccc(S(C)(=O)=O)c6)n5)cc4)CC3)c(Cc3ccc(F)cc3)cc21` [Example 116, 2-(2-(2-(4-((6-(4-Fluorobenzyl)-1-(2-((2R,5R)-2-(methoxymethyl)-5-methylpiperazin-1-yl)acetyl)-3,3-dimethyl-2,3-dihydro-1H-pyrrolo[3,2-b]pyridin-5-yl)methyl)piperazin-1-yl)ethoxy)ethoxy)-N-(4-((4-((3-(methylsulfonyl)benzyl)amino)-5-(trifluoromethyl)pyrimidin-2-yl)amino)phenyl)acetamide], the inhibition at 0.03 µM on FAK protein [1] is 50 to 75%.

Turning to `COC[C@H]1CN[C@H](C)CN1CC(=O)N1CC(C)(C)c2ncc(Cc3ccccc3OCCN3CCN(CCOCCOCCOCC(=O)Nc4ccc(Nc5ncc(C(F)(F)F)c(NCc6cccc(S(C)(=O)=O)c6)n5)cc4)CC3)cc21` [Example 122, 2-(2-(2-(2-(4-(2-(2-((1-(2-((2R,5R)-2-(Methoxymethyl)-5-methylpiperazin-1-yl)acetyl)-3,3-dimethyl-2,3-dihydro-1H-pyrrolo[3,2-b]pyridin-6-yl)methyl)phenoxy)ethyl)piperazin-1-yl)ethoxy)ethoxy)ethoxy)-N-(4-((4-((3-(methylsulfonyl)benzyl)amino)-5-(trifluoromethyl)pyrimidin-2-yl)amino)phenyl)acetamide], the inhibition at 0.03 µM on FAK protein [1] was 50 to 75%. Turning to `COC[C@H]1CN[C@H](C)CN1CC(=O)N1CC(C)(C)c2ncc(Cc3cccc(OCCN4CCN(CCOCCOCCOCCOCC(=O)Nc5ccc(Nc6ncc(C(F)(F)F)c(NCc7cccc(S(C)(=O)=O)c7)n6)cc5)CC4)c3)cc21` [Example 128, 14-(4-(2-(3-((1-(2-((2R,5R)-2-(Methoxymethyl)-5-methylpiperazin-1-yl)acetyl)-3,3-dimethyl-2,3-dihydro-1H-pyrrolo[3,2-b]pyridin-6-yl)methyl)phenoxy)ethyl)piperazin-1-yl)-N-(4-((4-((3-(methylsulfonyl)benzyl)amino)-5-(trifluoromethyl)pyrimidin-2-yl)amino)phenyl)-3,6,9,12-tetraoxatetradecanamide], at FAK protein [1], the inhibition at 0.03 µM fell in the range of 50 to 75%.
